Non-standard residues stand in square brackets, D forms with d. Residues, ends and D or L forms follow the SMILES beside them. *: point of attachment. Phenylacetyl(2,3,4,5,6-F5) = O=C(Cc1c(F)c(F)c(F)c(F)c1F)*; Phe(F5) = N[C@@H](Cc1c(F)c(F)c(F)c(F)c1F)C(=O)O; Phe(4-Cl) = N[C@@H](Cc1ccc(Cl)cc1)C(=O)O; hArg = N=C(N)NCCCC[C@H](N)C(=O)O; 12Ado = NCCCCCCCCCCCC(=O)O; Nle = CCCC[C@H](N)C(=O)O; Abu = CC[C@H](N)C(=O)O
Key:
Type in all cases: in vivo
[1] = test system: lung cancer HCC827 xenograft; test: Xenograft tumor growth in nude mice, HCC827; conditions: for % Inhibition: vs control
Procedure: (§1) The peptides' activity was compared with GHRH antagonist MIA-602. All statistical analyzses were performed from comparing GHRA antagonists to non-treated tumor (control).
(§2) Peptides and chemicals. GHRH antagonists MIA-602 and AVR-GHRH antagonists (see Table 2 above) were synthesized by solid phase methods and purified by HPLC. The peptides were dissolved in DMSO and further diluted in 10% 1,2-propanediol. The final concentration of peptides was 50 µg/ml in 10% 1,2-propanediol containing 0.1% of DMSO.
(§3) Cell culture. Human cancer cell lines including pancreatic (PANC-1 and CFPAC-1), lung (HCC827 and H460), stomach (NCI-N87), prostate (PC3), brest (MX-1 and HCC-1806), colorectal (HT-29), and ovarian (SK-OV-3 and OVCAR-3) were obtained from the American Type Culture Collection (ATCC) and cultured at 37° C. in a humidified 95% air/5% CO2 atmosphere in the medium recommended by ATCC.
(§4) Xenograft models of human cancers in nude mice. Female athymic (NCr nu/nu) nude mice, 5- to 6-weeks-old, obtained from the Envigo labs (Tampa, Fla.), were housed in laminar airflow cabinets under pathogen-free conditions with a 12-h light/12-h dark schedule, and were fed autoclaved standard chow and water. To generate mice with xenografted tumors, tumor xenografts were initiated by subcutaneous (s.c.) injection of 107 human cancer cells into female nude mice. After about 4 weeks the resulting tumors were dissected and collected after removing necrosis tissues. The tumors were then cut into particles with size of 3 mm3 and transplanted s.c. by trocar needle into experimental animals. When tumors grew to the size of 50-60 mm3 (by volume), mice were randomized into groups and treated daily for 4-8 weeks by subcutaneous administration of 5 μg of GHRH antagonists MIA-602 or AVR-compounds (2-10 μg as indicated), or vehicle solutions (0.1% DMSO in 10% 1,2-propanediol) respectively. Tumor sizes were measured weekly.
(§5) Statistical analysis. One-way ANOVA followed by Bonferroni comparison were performed. Data are expressed as Mean±SEM. To determine statistical significance between animal groups, two-tailed Student's t-test was conducted. Differences were considered significant when p<0.05.
(§6) Results. […] FIG. 1A-N represents in vivo inhibition of tumor growth during the treatment with GHRH antagonist MIA-602 and selected AVR antagonists in nude mice xenografted with various human tumors including pancreatic cancer PANC-1 (FIG. 1A) and CFPAC-1 (FIG. 1I); lung cancer HCC827 (FIGS. 1B, C) and H460 (FIG. 1H); stomach cancer N87 (FIGS. 1D-F); colon cancer HT-29 (FIG. 1G); breast cancer MX-1 and HCC-1806 (FIGS. 1J, K); ovarian cancer SK-OV-3 and OVACAR-3 (FIGS. 1 L, M) and prostate cancer PC3 (FIG. 1N). See also Table 5.

[2] = test system: ovarian cancer OVCAR-3 xenograft; test: Xenograft tumor growth in nude mice, OVCAR-3; conditions: Table 4M, Ovarian Ca OVCAR-3, 9 weeks; for % Inhibition: vs control
Procedure: as §1, §2, §3, §4, §5, §6

[3] = test system: stomach cancer N87 xenograft; test: Xenograft tumor growth in nude mice, N87; conditions: Table 4F, Stomach Ca N87, 4 weeks; for % Inhibition: vs control
Procedure: as §1, §2, §3
as §4, with “mice were randomized into groups and treated daily for 4-8 weeks by subcutaneous administration” left out
as §5, §6

[4] = test system: breast cancer MX-1 xenograft; test: Xenograft tumor growth in nude mice, MX-1; conditions: Table 4J, Breast Ca MX-1, 4 weeks, 5 μg/day s.c.; for % Inhibition: vs control
Procedure: as §1, §2, §3, §4, §5, §6

[5] = Table 4B, Lung Ca HCC827, 7 weeks, 5 μg/day s.c.
[6] = Table 4C, Lung Ca HCC827, 8 weeks, 2.5 μg/day s.c.
[7] = Table 4C, Lung Ca HCC827, 8 weeks, 5 μg/day s.c.
[8] = Table 4C, Lung Ca HCC827, 8 weeks, 10 μg/day s.c.

Row | Compound | Tumor Growth % [1, 5] [%] | % Inhibition [1, 5] [%] | Tumor Growth % [1, 6] [%] | % Inhibition [1, 6] [%] | Tumor Growth % [1, 7] [%] | % Inhibition [1, 7] [%] | Tumor Growth % [1, 8] [%] | % Inhibition [1, 8] [%] | Tumor Size (mm3) ([2]; 2.5 μg/day s.c.) | % Inhibition ([2]; 2.5 μg/day s.c.) [%] | Tumor Size (mm3) ([2]; 5 μg/day s.c.) | % Inhibition ([2]; 5 μg/day s.c.) [%] | Tumor Growth % ([3]; 2 μg/day s.c.) [%] | % Inhibition ([3]; 2 μg/day s.c.) [%] | Tumor Growth % ([3]; 5 μg/day s.c.) [%] | % Inhibition ([3]; 5 μg/day s.c.) [%] | Tumor Growth % [4] [%] | % Inhibition [4] [%]
1 | CCCC[C@H](NC(=O)[C@@H](NC(=O)[C@H](CC(=O)O)NC(=O)[C@H](CCC(N)=O)NC(=O)[C@H](CC(C)C)NC(=O)[C@H](CC(C)C)NC(=O)[C@H](CCCCN)NC(=O)[C@H](CCCNC(=N)N)NC(=O)[C@H](C)NC(=O)[C@H](CO)NC(=O)[C@H](CC(C)C)NC(=O)[C@H](CCC(N)=O)NC(=O)[C@H](CC)NC(=O)[C@H](CC(C)C)NC(=O)[C@@H](NC(=O)[C@H](CCCCN)NC(=O)[C@H](CCCNC(=N)N)NC(=O)[C@H](Cc1c(F)c(F)c(F)c(F)c1F)NC(=O)[C@H](CCCCNC(=N)N)NC(=O)[C@H](C)NC(=O)[C@@H](NC(=O)[C@H](Cc1ccc(Cl)cc1)NC(=O)[C@@H](NC(=O)[C@H](C)NC(=O)[C@H](CC(=O)O)NC(=O)[C@@H](CCCNC(=N)N)NC(=O)[C@H](Cc1ccc(O)cc1)NC(=O)CCCCCCCCCCCNC(=O)Cc1c(F)c(F)c(F)c(F)c1F)[C@@H](C)CC)[C@@H](C)O)C(C)C)[C@@H](C)CC)C(=O)N[C@H](CCCNC(=N)N)C(=O)N[C@@H](CCCCNC(=N)N)C(=O)NCCCCCCCCCCCC(N)=O [AVR-353, 5FPhAC-Ada-Tyr-DArg-Asp-Ala-Ile-Cpa-Thr-Ala-Har-5FPhe-Arg-Lys-Val-Leu-Abu-Gln-Leu-Ser-Ala-Arg-Lys-Leu-Leu-Gln-Asp-Ile-Nle-DArg-Har-Ada-NH2] ({Phenylacetyl(2,3,4,5,6-F5)-12Ado}-Y[dR]DAI[Phe(4-Cl)]TA[hArg][Phe(F5)]RKVL[Abu]QLSARKLLQDI[Nle][dR][hArg][12Ado]-NH2) | 380.3 | 71.0 | 545.65 | 35.1 | 420.79 | 50.0 | 359.16 | 57.3 | 357.0 | 25.7 | 255.2 | 46.9 | 433.70 | 51.4 | 312.20 | 65.0 | 774.2 | 30.5
2 | CCCC[C@H](NC(=O)[C@@H](NC(=O)[C@H](CC(=O)O)NC(=O)[C@H](CCC(N)=O)NC(=O)[C@H](CC(C)C)NC(=O)[C@H](CC(C)C)NC(=O)[C@H](CCCCN)NC(=O)[C@H](CCCNC(=N)N)NC(=O)[C@H](C)NC(=O)[C@H](CO)NC(=O)[C@H](CC(C)C)NC(=O)[C@H](CCC(N)=O)NC(=O)[C@H](CC)NC(=O)[C@H](CC(C)C)NC(=O)[C@@H](NC(=O)[C@H](CCCCN)NC(=O)[C@H](CCCNC(=N)N)NC(=O)[C@H](Cc1ccc(OC)cc1)NC(=O)[C@H](CCCCNC(=N)N)NC(=O)[C@H](C)NC(=O)[C@@H](NC(=O)[C@H](Cc1c(F)c(F)c(F)c(F)c1F)NC(=O)[C@@H](NC(=O)[C@H](C)NC(=O)[C@H](CC(=O)O)NC(=O)[C@@H](CCCNC(=N)N)NC(=O)[C@H](Cc1ccc(O)cc1)NC(=O)CCCCCCCCCCCNC(=O)Cc1c(F)c(F)c(F)c(F)c1F)[C@@H](C)CC)[C@@H](C)O)C(C)C)[C@@H](C)CC)C(=O)N[C@H](CCCNC(=N)N)C(=O)N[C@@H](CCCCNC(=N)N)C(=O)NCCCCCCCCCCCC(N)=O [AVR-352, 5FPhAC-Ada-Tyr-DArg-Asp-Ala-Ile-5FPhe-Thr-Ala-Har-Tyr(Me)-Arg-Lys-Val-Leu-Abu-Gln-Leu-Ser-Ala-Arg-Lys-Leu-Leu-Gln-Asp-Ile-Nle-DArg-Har-Ada-NH2] ({Phenylacetyl(2,3,4,5,6-F5)-12Ado}-Y[dR]DAI[Phe(F5)]TA[hArg]Y(Me)RKVL[Abu]QLSARKLLQDI[Nle][dR][hArg][12Ado]-NH2) | 371.7 | 71.6 |  |  |  |  |  |  | 307.7 | 35.9 | 199.9 | 58.4 |  |  |  |  | 673.2 | 39.5
3 | CCCC[C@H](NC(=O)[C@@H](NC(=O)[C@H](CC(=O)O)NC(=O)[C@H](CCC(N)=O)NC(=O)[C@H](CC(C)C)NC(=O)[C@H](CC(C)C)NC(=O)[C@H](CCCCN)NC(=O)[C@H](CCCNC(=N)N)NC(=O)[C@H](C)NC(=O)[C@H](CO)NC(=O)[C@H](CC(C)C)NC(=O)[C@H](CCC(N)=O)NC(=O)[C@H](CC)NC(=O)[C@H](CC(C)C)NC(=O)[C@@H](NC(=O)[C@H](CCCCN)NC(=O)[C@H](CCCNC(=N)N)NC(=O)[C@H](Cc1c(F)c(F)c(F)c(F)c1F)NC(=O)[C@H](CCCCNC(=N)N)NC(=O)[C@H](C)NC(=O)[C@@H](NC(=O)[C@H](Cc1ccc(Cl)cc1)NC(=O)[C@@H](NC(=O)[C@H](C)NC(=O)[C@H](CC(=O)O)NC(=O)[C@@H](CCCNC(=N)N)NC(=O)[C@H](Cc1ccc(O)cc1)NC(=O)CCCCCCCCCCCNC(=O)Cc1c(F)c(F)c(F)c(F)c1F)[C@@H](C)CC)[C@@H](C)O)C(C)C)[C@@H](C)CC)C(=O)N[C@H](CCCNC(=N)N)C(=O)N[C@@H](CCCCNC(=N)N)C(=O)NCCCCCCCCCCCC(=O)NC [AVR-354] ({Phenylacetyl(2,3,4,5,6-F5)-12Ado}-Y[dR]DAI[Phe(4-Cl)]TA[hArg][Phe(F5)]RKVL[Abu]QLSARKLLQDI[Nle][dR][hArg][12Ado]-NHMe) |  |  |  |  |  |  |  |  |  |  |  |  |  |  |  |  | 488.3 | 56.2

Source: patent publication US20210395327A1, “Growth Hormone-Releasing Hormone Antagonists and Uses Thereof” (United States Government As Represented By The Department …, priority 2019, published 2021)
